Laboratory results as given in PMC12304045 (2025).
One block for each compound: values may come before it.

How the values were obtained:
[1] = system: OTC-APT5, amine-terminated (DNA, aptamer) ACGACATTCCGTTGATCTCTCCCTTTTGGGTTGGTGTCGT; assay: DPV aptasensor, [Fe(CN)6]3-/4- probe; details: 2 mM MgCl2, 10 mM phosphate buffer pH 7.4
[2] = system: OTC-APT5 (DNA, aptamer) ACGACATTCCGTTGATCTCTCCCTTTTGGGTTGGTGTCGT; assay: circular dichroism; details: 100 mM NaCl, 5 mM KCl, 2 mM MgCl2, 2 mM CaCl2; 20 mM tris, 0.05% Tween 20, 25 °C; 2 μM aptamer
[3] = system: OTC-APT5 (DNA, aptamer) ACGACATTCCGTTGATCTCTCCCTTTTGGGTTGGTGTCGT; assay: fluorescence titration; details: 100 mM NaCl, 5 mM KCl, 2 mM MgCl2, 2 mM CaCl2; 20 mM tris, 0.05% Tween 20; 200 nM OTC titrated with aptamer; unit likely misprint for nM
[4] = system: OTC-APT5 (DNA, aptamer) ACGACATTCCGTTGATCTCTCCCTTTTGGGTTGGTGTCGT; assay: fluorescence polarization titration; details: 100 mM NaCl, 5 mM KCl, 2 mM MgCl2, 2 mM CaCl2; 20 mM tris, 0.05% Tween 20; 200 nM OTC titrated with aptamer
[5] = highest tested 250 ng/mL, signal change <10% of OTC

binding [1, 5]: no
SMILES: CC1(C)S[C@@H]2[C@H](NC(=O)Cc3ccccc3)C(=O)N2[C@H]1C(=O)O

binding ([1]; tested at fivefold excess over OTC, signal change <10% of OTC): no
SMILES: CC1(C)S[C@@H]2[C@H](NC(=O)[C@H](N)c3ccccc3)C(=O)N2[C@H]1C(=O)O

binding ([1]; 50 ng/mL, signal similar to OTC): yes
SMILES: CN(C)[C@@H]1C(=O)C(C(N)=O)=C(O)[C@@]2(O)C(=O)C3=C(O)c4c(O)cccc4[C@@](C)(O)[C@H]3C[C@@H]12

binding ([1]; 50 ng/mL OTC): yes
binding [2]: yes
Kd [3]: 106 nM
Kd [4]: 62 nM
SMILES: CN(C)[C@@H]1C(=O)C(C(N)=O)=C(O)[C@@]2(O)C(=O)C3=C(O)c4c(O)cccc4[C@@](C)(O)[C@H]3[C@H](O)[C@@H]12

binding [1, 5]: no
SMILES: CN[C@@H]1[C@H](O[C@H]2[C@H](O[C@H]3[C@H](O)[C@@H](O)[C@H](N=C(N)N)[C@@H](O)[C@@H]3N=C(N)N)O[C@@H](C)[C@]2(O)C=O)O[C@@H](CO)[C@H](O)[C@H]1O

binding [1, 5]: no
SMILES: NC[C@H]1O[C@H](O[C@H]2[C@H](O)[C@@H](O[C@H]3O[C@H](CO)[C@@H](O)[C@H](N)[C@H]3O)[C@H](N)C[C@@H]2N)[C@H](O)[C@@H](O)[C@@H]1O
